Reference: ChEMBL document CHEMBL4825753 (J Med Chem, 2021)
Values belong to the compound of their own block, whether it stands above or below them.

Columns and labels:
[1] = molecular target: T1, Tyrosine-protein kinase receptor UFO (Homo sapiens, UniProt P30530); experiment: Inhibition of FLAG-tagged AXL (unknown origin) transfected in Cos-7 cells assessed as phosphorylation level incubated for 1 hr by ELISA; type: cell-based
T1 sequence (P30530 whole entry): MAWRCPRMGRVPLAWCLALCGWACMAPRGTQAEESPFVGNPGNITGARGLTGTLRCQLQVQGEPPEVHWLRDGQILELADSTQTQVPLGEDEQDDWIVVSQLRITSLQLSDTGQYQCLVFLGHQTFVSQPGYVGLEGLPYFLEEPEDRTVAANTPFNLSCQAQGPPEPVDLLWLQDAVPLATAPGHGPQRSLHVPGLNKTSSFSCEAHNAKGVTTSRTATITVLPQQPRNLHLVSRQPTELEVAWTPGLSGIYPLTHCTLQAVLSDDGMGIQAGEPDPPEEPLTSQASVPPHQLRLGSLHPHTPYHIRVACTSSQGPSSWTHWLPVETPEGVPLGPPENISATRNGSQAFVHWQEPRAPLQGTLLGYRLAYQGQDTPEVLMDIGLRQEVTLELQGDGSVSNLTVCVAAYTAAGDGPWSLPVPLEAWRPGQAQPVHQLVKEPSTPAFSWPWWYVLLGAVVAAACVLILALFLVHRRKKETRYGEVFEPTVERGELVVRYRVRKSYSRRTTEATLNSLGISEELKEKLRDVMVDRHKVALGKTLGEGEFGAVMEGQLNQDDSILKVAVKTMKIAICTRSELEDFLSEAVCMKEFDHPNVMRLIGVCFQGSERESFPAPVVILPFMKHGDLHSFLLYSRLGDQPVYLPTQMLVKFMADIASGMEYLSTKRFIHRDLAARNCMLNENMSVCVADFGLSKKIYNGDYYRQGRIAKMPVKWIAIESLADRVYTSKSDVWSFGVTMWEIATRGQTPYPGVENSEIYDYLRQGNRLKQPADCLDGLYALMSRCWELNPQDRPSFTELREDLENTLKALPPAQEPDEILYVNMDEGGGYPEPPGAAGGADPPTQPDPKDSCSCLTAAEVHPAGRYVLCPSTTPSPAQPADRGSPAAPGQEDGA

[2] = molecular target: T2, Receptor-type tyrosine-protein kinase FLT3 (Homo sapiens, UniProt P36888); experiment: Inhibition of FLAG-tagged FLT3 (unknown origin) transfected in Cos-7 cells assessed as phosphorylation level incubated for 1 hr by ELISA; type: cell-based
T2 sequence (P36888 whole entry): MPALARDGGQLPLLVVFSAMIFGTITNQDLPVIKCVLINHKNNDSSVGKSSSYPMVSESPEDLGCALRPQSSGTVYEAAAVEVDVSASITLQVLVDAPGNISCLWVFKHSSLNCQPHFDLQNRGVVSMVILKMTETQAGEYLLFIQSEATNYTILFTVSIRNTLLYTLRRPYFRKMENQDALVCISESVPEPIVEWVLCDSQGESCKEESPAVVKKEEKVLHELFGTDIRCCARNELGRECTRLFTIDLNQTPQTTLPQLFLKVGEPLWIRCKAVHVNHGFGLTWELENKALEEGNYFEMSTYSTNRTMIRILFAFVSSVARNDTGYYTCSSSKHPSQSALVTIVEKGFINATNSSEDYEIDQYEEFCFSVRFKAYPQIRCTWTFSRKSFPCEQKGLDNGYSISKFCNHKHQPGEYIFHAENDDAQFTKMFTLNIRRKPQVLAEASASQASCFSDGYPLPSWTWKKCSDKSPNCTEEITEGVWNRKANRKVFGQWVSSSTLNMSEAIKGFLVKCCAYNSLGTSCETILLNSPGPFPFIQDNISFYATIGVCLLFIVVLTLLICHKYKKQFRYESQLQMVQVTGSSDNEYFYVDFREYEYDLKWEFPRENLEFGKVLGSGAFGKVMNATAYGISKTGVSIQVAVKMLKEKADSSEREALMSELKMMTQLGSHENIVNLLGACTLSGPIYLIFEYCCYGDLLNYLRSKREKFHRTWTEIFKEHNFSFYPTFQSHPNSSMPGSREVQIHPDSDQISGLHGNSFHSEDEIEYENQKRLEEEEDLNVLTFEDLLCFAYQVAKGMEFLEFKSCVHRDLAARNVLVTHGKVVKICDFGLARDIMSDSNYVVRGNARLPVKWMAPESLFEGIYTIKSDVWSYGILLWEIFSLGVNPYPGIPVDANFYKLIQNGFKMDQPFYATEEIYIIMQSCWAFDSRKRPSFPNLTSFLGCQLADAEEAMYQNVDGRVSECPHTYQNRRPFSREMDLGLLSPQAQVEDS

[3] = Lipophilicity, log D of the compound at pH 7.4; type: physicochemical; details: buffer
[4] = molecular target: T3, Tyrosine-protein kinase receptor TYRO3 (Homo sapiens, UniProt Q06418); experiment: Inhibition of FLAG-tagged Tyro3 (unknown origin) transfected in Cos-7 cells assessed as phosphorylation level incubated for 1 hr by ELISA; type: cell-based
T3 sequence (Q06418 whole entry): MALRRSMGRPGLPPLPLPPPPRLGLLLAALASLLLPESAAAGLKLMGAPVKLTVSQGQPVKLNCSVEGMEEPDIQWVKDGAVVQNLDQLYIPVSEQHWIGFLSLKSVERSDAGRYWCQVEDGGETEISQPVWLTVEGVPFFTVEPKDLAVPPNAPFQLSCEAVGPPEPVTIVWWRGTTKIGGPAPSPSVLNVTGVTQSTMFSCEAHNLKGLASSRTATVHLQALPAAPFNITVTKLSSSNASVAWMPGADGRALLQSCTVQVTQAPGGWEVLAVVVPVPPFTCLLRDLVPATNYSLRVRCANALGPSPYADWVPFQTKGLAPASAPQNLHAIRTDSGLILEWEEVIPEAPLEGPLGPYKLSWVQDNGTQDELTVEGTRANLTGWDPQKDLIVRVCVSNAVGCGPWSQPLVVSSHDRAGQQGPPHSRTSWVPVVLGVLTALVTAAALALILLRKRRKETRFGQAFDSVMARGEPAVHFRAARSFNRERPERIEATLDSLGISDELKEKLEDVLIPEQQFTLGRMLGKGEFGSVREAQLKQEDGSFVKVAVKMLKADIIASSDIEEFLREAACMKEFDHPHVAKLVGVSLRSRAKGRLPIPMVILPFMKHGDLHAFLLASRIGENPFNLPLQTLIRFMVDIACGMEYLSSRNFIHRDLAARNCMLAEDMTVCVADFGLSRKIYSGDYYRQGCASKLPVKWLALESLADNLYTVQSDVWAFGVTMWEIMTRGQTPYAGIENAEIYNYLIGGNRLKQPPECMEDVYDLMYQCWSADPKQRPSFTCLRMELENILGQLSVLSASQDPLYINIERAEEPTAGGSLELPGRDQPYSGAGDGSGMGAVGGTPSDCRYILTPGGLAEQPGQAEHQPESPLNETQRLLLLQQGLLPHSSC

[5] = Photostability of compound assessed as half life; type: physicochemical
[6] = Induction efferocytosis in human PBMC assessed as CD14-positive monocytes
[7] = molecular target: T4, Tyrosine-protein kinase Mer (Homo sapiens, UniProt Q12866); experiment: Inhibition of MER (unknown origin) by LC-MS analysis
T4 sequence (Q12866 whole entry): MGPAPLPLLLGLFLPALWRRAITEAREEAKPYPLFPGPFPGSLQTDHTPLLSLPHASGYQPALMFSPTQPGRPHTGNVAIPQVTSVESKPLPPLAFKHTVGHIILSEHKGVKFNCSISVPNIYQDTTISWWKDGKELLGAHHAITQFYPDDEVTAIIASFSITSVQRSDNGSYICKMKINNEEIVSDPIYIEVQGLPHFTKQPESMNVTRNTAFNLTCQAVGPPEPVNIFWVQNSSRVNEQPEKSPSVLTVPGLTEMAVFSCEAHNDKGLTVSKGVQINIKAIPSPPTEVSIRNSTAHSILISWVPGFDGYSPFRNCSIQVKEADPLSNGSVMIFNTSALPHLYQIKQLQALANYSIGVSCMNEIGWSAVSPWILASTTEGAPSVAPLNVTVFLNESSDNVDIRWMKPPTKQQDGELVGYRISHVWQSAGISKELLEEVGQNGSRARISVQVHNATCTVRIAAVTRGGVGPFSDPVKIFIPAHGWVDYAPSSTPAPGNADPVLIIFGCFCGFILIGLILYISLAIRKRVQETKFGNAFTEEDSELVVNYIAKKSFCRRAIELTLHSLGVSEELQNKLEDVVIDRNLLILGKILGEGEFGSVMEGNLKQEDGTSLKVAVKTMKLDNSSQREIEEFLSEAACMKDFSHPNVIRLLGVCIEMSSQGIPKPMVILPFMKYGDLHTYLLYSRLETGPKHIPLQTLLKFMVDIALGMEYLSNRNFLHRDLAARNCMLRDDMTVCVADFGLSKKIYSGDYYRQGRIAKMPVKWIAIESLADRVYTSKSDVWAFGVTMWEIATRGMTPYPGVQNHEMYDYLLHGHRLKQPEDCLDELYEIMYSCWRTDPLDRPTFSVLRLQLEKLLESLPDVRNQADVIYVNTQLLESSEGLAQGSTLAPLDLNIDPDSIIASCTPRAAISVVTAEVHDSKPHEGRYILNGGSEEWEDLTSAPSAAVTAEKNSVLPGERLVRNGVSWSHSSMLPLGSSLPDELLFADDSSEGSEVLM

[8] = molecular target: T1, Tyrosine-protein kinase receptor UFO; experiment: Inhibition of AXL (unknown origin) by LC-MS analysis
[9] = molecular target: T2, Receptor-type tyrosine-protein kinase FLT3; experiment: Inhibition of FLT3 (unknown origin) by LC-MS analysis

Compound: Cc1cc(-c2c(C)nn(C)c2C)cnc1-c1nnc(N(C)Cc2ccc3ncc(-c4ccc(CN(C)C)nc4)n3c2)o1
IC50 [1]: 1.58 µM | IC50 [2]: > 31.6 µM | logD [3]: 2.5 | IC50 [4]: > 31.6 µM

Compound: Cc1cc(-c2c(C)nn(C)c2C)cnc1-c1nnc(N(C)Cc2ccc3ncc(-c4cnn(CCN(C)C)c4)n3c2)o1
IC50 [1]: 1 µM | IC50 [2]: > 31.6 µM | logD [3]: 2.7 | IC50 [4]: > 31.6 µM | pIC50 [6]: 7.1

Compound: Cc1cc(-c2c(C)nn(C)c2C)ccc1-c1nnc(N(C)Cc2ccc3ncc(C4CCN(C)CC4)n3c2)o1
IC50 [1]: 1.26 µM | IC50 [2]: > 31.6 µM | logD [3]: 2.5 | IC50 [4]: > 31.6 µM | pIC50 [6]: 6.9

Compound: Cc1cc(-c2c(C)n[nH]c2C)ccc1-c1nnc(N(C)Cc2ccc3nccn3c2)o1
IC50 [7]: 0.0398 µM | IC50 [8]: 5.01 µM | IC50 [9]: 39.8 µM | IC50 [1]: 15.8 µM | IC50 [2]: 7.94 µM | logD [3]: 3.8

Compound: Cc1cc(-c2c(C)nc(C)n2C)ccc1-c1nnc(N(C)Cc2ccc3nccn3c2)o1
IC50 [7]: 0.0398 µM | IC50 [8]: 3.98 µM | IC50 [9]: 39.8 µM | IC50 [1]: 5.01 µM | IC50 [2]: > 50.1 µM | logD [3]: 2.6

Compound: Cc1nn(C)c(C)c1-c1ccc(-c2nnc(N(C)Cc3ccc4nccn4c3)o2)c(F)c1
IC50 [7]: 0.0126 µM | IC50 [8]: 1.26 µM | IC50 [9]: > 100 µM | IC50 [1]: 3.16 µM | IC50 [2]: > 31.6 µM | logD [3]: 3.2

Compound: Cc1cc(-c2c(C)nn(C)c2C#N)ccc1-c1nnc(N(C)Cc2ccc3nccn3c2)o1
IC50 [7]: 0.00158 µM | IC50 [8]: 0.0398 µM | IC50 [9]: 15.8 µM | IC50 [1]: 0.398 µM | IC50 [2]: > 31.6 µM | logD [3]: 3.8

Compound: Cc1nc(-c2c(C)nn(C)c2C)ccc1-c1nnc(N(C)Cc2ccc3nccn3c2)o1
IC50 [7]: 0.0631 µM | IC50 [8]: 3.16 µM | IC50 [9]: > 100 µM | IC50 [1]: 10 µM | IC50 [2]: > 31.6 µM | logD [3]: 2.5

Stronger by IC50 [1], values ahead:

IC50 [1]: 0.2 µM | IC50 [2]: 7.94 µM | logD [3]: 5.3 | IC50 [4]: 20 µM | half-life [5]: 11.4 days | pIC50 [6]: 6.7
Compound: Cc1cc(-c2c(C)nn(C)c2C)ccc1-c1nnc(N(C)Cc2ccc3ncc(-c4ccccc4)n3c2)o1

IC50 [1]: 0.126 µM | IC50 [2]: > 31.6 µM | logD [3]: 3.5 | IC50 [4]: 12.6 µM | pIC50 [6]: 7.8
Compound: Cc1cc(-c2c(C)nn(C)c2C)ccc1-c1nnc(N(C)Cc2ccc3ncc(-c4cnn(CCN(C)C)c4)n3c2)o1

IC50 [1]: 0.0631 µM | IC50 [2]: 12.6 µM | logD [3]: 4 | IC50 [4]: 12.6 µM | half-life [5]: 11.4 days | pIC50 [6]: 7.2
Compound: Cc1cc(-c2c(C)nn(C)c2C)ccc1-c1nnc(N(C)Cc2ccc3ncc(-c4cnn(C)c4)n3c2)o1

IC50 [1]: 0.126 µM | IC50 [2]: 25.1 µM | logD [3]: 3 | IC50 [4]: > 31.6 µM | pIC50 [6]: 7.2
Compound: Cc1cc(-c2c(C)nn(C)c2C)cnc1-c1nnc(N(C)Cc2ccc3ncc(-c4ccc(CN(C)C)cn4)n3c2)o1

IC50 [1]: 0.316 µM | IC50 [2]: > 31.6 µM | logD [3]: 3 | IC50 [4]: > 31.6 µM | pIC50 [6]: 7
Compound: Cc1cc(-c2c(C)nn(C)c2C)cnc1-c1nnc(N(C)Cc2ccc3ncc(-c4cccc(CN(C)C)c4)n3c2)o1
